Drawing on patent publication US8104331B2, “Method and device to extract components contained in a fluid” (Noab Biodiscoveries Inc., priority 2006, dated 2012), this text covers AUMC0-inf, AUMC0-tlast and AUMC for three molecules.

Series [1] can be described thus: In vivo SPME sampling of whole blood for pharmacokinetics after i.v. bolus diazepam. The following applies: rat; for AUMC0-inf / AUMC0-tlast: metabolite, SPME (blood, equilibrium calibration), i.v. bolus 0.5 mg/kg diazepam, noncompartmental; for AUMC: SPME/blood, 2-compartment analysis. As for the experimental part: (§1) Animal Experiments: Male Sprague-Dawley rats (Charles River Labs, St. Constant, PQ) with an average weight of 300 g are acclimatized to their new environment for a minimum of 5 days prior to surgery. […] The catheters are plugged with removable metal plugs at the free end and then exteriorized by threading them under the skin and through a small incision at the nape of the neck. Animals are allowed to recover overnight prior to dosing. […] In vivo mouse experiments are conducted with conscious male Swiss Webster mice implanted with a carotid artery catheter. All procedures followed have been reviewed by the NoAb BioDiscoveries Inc. animal care committee and were performed in accordance with the principles of the Canadian Council on Animal Care (CCAC).
A device to extract components is attached to the carotid artery catheter prior to dosing each rat or mouse. To insert the probes, the tip of the SPME probe needle is used to pierce the septum of the device. The length of the fiber or wire of the probe is chosen so that the coated wire is completely exposed to the blood flow when the plunger is fully depressed. Before use, the SPME probe is sterilized in an autoclave at 121° C. and 15 psi for about 30 minutes. For validation purposes, blood draws are taken from the same interface after each sampling with SPME. All the probes are for single use.
(§2) For each time point (5, 15, 30, 45, 60, 75, 120, 180, 240 and 360 min), the probes are in place for about two (2) minutes before the stated analysis time and blood draws are performed immediately after removing the probes. After the two (2) minute extraction time, the probes are removed, rinsed with water, and stored at −20° C. until the next day, when analysis is performed. […] For SPME calibration, rat whole blood is spiked with appropriate amounts of benzodiazepines and incubated with 10% CO2 atmosphere. The analytical range is 3-750 ng/mL.
(§3) Areas under the plasma concentration versus time curves (AUCs) represent the areas under the curve from the time of dosing and extrapolated to infinity. […] The total body clearance (CL) is estimated as: Dose/AUC. Mean residence times (MRT) are calculated as: AUMC/AUC, where AUMC denotes the area under the first moment curve. The steady-state volume of distribution (Vss) is calculated as: CL*MRT.
(§4) AUCs are calculated by the linear/log-linear trapezoidal rule. AUCs represent the areas under the curve from the time of dosing: (1) to the time (tlast) of the last measurable concentration, Clast (AUC0-tlast) and, (2) extrapolated to infinity (AUC0-inf). AUC0-inf is estimated by the addition of AUC0-tlast and Clast/k, where k (or λz) represents the terminal elimination rate constant. K is estimated by weighted (1/Y^2) regression analysis of at least 4 time points from the terminal (log-linear) portion of the concentration versus time curve.
In vivo experiments are conducted with conscious male Sprague-Dawley rats implanted with jugular vein and carotid artery catheters. The catheters are plugged and exteriorized at the nape of the neck. Prior to dosing, the opening of the device is connected to the carotid artery catheter. The channel of the device is either connected to the jugular vein catheter or is connected to a syringe pump. Connecting the device to the jugular vein catheter allowed for automatic return of the arterial blood, using the pumping action of the heart of the animal. Connecting the device to a syringe allows for precise control of the blood flow rate through the device. The device and the associated tubing are kept warm at 38° C.
At each sampling time point, a sterile SPME device is placed through the septum into the interface so that only the coated portion of the fiber is exposed to the flowing blood. Blood flow through the device is either allowed to run freely via recirculation to the jugular vein or is induced by the push/pull action of a syringe attached to the channel.

Series [2] in a line: Conventional plasma sampling and analysis for pharmacokinetics after i.v. bolus diazepam. The following applies: rat; for AUMC0-inf / AUMC0-tlast: metabolite, i.v. bolus 0.5 mg/kg diazepam, noncompartmental; for AUMC: 2-compartment analysis. As for the experimental part:
as §1, §2
Conventional Plasma Sampling and Analysis: In addition to SPME sampling, 0.2 mL of blood is withdrawn from the interface at each time point. Plasma is isolated by centrifugation at 2500 rpm for 10 minutes and frozen at −20° C. in 2 mL cryovials (Wheaton Science Products, Millville, N.J.) until analysis. For analysis, 0.05 mL of plasma is mixed with 0.25 mL acetonitrile containing 25 ng/mL lorazepam as internal standard in conical centrifuge vials. After vortex mixing (2400 rpm, 5 minutes) and centrifugation (14000 rpm, 7 minutes), 0.2 mL of the supernatant is transferred to a 96-well plate and evaporated to dryness under flowing nitrogen. The residue is dissolved in 0.1 mL acetonitrile/water (75:25) on a shaking bed (150 rpm). Twenty μL is injected for analysis using the same chromatographic conditions as for the analysis of SPME probes. The linear range is 0.1-1000 ng/mL.
as §3, §4
For validation of the in vivo sampling method taught by the applicant's teachings, blood is sampled after each probe extraction, and plasma is isolated by centrifugation.

In the case of `O=C1CN=C(c2ccccc2)c2cc(Cl)ccc2N1` [Nordiazepam, nordiazepam], in series [1], the AUMC0-inf is on record as 50.0 h^2*ng/mL and the AUMC0-tlast is on record as 7.86 h^2*ng/mL. Moreover, in series [2], the AUMC0-inf stood at 16.5 h^2*ng/mL and the AUMC0-tlast is reported as 6.38 h^2*ng/mL.
On to `CN1C(=O)CN=C(c2ccccc2)c2cc(Cl)ccc21` [diazepam], for which the AUMC in series [1] (equilibrium calibration, diazepam 0.5 mg/kg i.v. bolus) is on record as 527 h^2*ng/mL; in series [1] (kinetic calibration, diazepam 1 mg/kg i.v. bolus), 741 h^2*ng/mL; in series [2] (equilibrium calibration study, diazepam 0.5 mg/kg i.v. bolus), 319 h^2*ng/mL; in series [2] (kinetic calibration study, diazepam 1 mg/kg i.v. bolus) it was 1000 h^2*ng/mL.
Regarding `O=C1Nc2ccc(Cl)cc2C(c2ccccc2)=NC1O` (stereo not drawn) [Oxazepam, oxazepam], in series [1], the AUMC0-inf is 834 h^2*ng/mL and the AUMC0-tlast came to 278 h^2*ng/mL. In series [2], the AUMC0-inf is 293 h^2*ng/mL and the AUMC0-tlast stood at 176 h^2*ng/mL.
